Source: publication PMC8066339, “Optimization of 2-Acylaminocycloalkylthiophene Derivatives for Activity against Staphylococcus aureus RnpA” (Antibiotics, 2021)
≈ marks a conversion by molar mass, not a printed value. Where “and” joins values, the source holds several entries; their conditions need not be identical. Equal values may be shown once. Entries after “also recorded” stand apart in the source; their conditions may differ. Read-outs that look alike come from different tables or passages of the source.

Columns and labels:
S. aureus UAMS-1 = assay: Fractional inhibitory concentration (FIC) testing with mupirocin; assay type: cell-based, Staphylococcus aureus; details: for MIC: Staphylococcus aureus, UAMS1, compound alone, read-out: Cpd MIC, Dosed-Individually; for FIC Index / Antimicrobial interaction with mupirocin (class by FIC index): compound + mupirocin; for Cpd MIC, Dosed-Combination: compound MIC in combination with mupirocin
Procedure: Fractional inhibitory concentration (FIC) testing was performed, as previously described. Briefly, each well of a 96-well microtiter plate was inoculated with 10^4 CFU of S. aureus UAMS-1 [42]. Each row of the plate was supplemented with two-fold increasing concentrations of mupirocin (0 µg mL^−1 to 2 µg mL^−1) whereas each column contained two-fold increasing concentrations of putative RnpA inhibitor compound (0.03, 0.0625, 0.125, 0.25, 0.5, 1, or 2× MIC). […] The FIC index was defined by the following formula: FIC = (MIC of Drug A in Combination/MIC of Drug A Alone) + (MIC of Drug B in Combination/MIC of Drug B Alone). A synergistic interaction was defined as a FIC value of ≤0.5, an additive interaction as 0.5–1, no interaction as 1–4 and antagonistic interaction as FIC ≥ 4, as described.

S. aureus strain UAMS-1 = assay: Minimum inhibitory concentration (MIC) testing, CLSI broth microdilution; assay type: cell-based, Staphylococcus aureus; details: for MIC: Staphylococcus aureus, S. aureus strain UAMS-1, read-out: MIC
Procedure: Staphylococcus aureus strains UAMS-1 is a well-characterized antibiotic susceptible osteomyelitis clinical isolate (Blevins Infect. Immun 2003). For experiments, UAMS-1 was cultured in Mueller Hinton (MH) broth and processed as described below. Escherichia coli strain BL21 (DE3) was cultured in Luria–Bertani (LB) and supplemented with ampicillin (50 µg ml^−1) where indicated.
Minimum inhibitory concentration (MIC) was performed according to the Clinical and Laboratory Standards Institute (CLSI) guidelines. Briefly, individual wells of a 96-well microtiter plate were inoculated with 10^4 colony forming units (CFU) of S. aureus UAMS-1 containing two-fold increasing concentrations (0 µM to 100 µM) of the indicated antibiotic or putative RnpA inhibitor and grown at 37 °C for 16 h in MH broth. The MIC was defined as the lowest concentration of compound in which there was no visible bacterial growth detected by the unaided eye.

RNase P (RnpA + rnpB) = biological target: T1, RNase P (RnpA + rnpB) (Staphylococcus aureus, UniProt P0A0H5); assay: In vitro ptRNA^Tyr processing assay with reconstituted RNase P; assay type: biochemical; details: for IC50: in vitro ptRNA^Tyr processing, average of at least two tests, read-out: ptRNA IC50
T1 construct: made in house; host or cells: E. coli BL21 (DE3)
T1 sequence (P0A0H5 1-117): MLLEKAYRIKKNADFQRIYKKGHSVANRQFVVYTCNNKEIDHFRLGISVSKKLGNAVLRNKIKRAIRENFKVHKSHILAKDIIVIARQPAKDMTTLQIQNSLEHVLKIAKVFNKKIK
Procedure: His-tagged RnpA was purified as previously described. E. coli BL21 (DE3) cells harboring plasmid pEXP5-nt containing a hexahistidine tag fused to the N-terminus of S.aureus RnpA coding region were grown in LB supplemented with 50 µg mL^−1 ampicillin to OD600 = 0.6 and induced with 1mM isopropyl β-D-1-thiogalactopyranoside (IPTG) for three hours to induce protein expression. […] Cells were mechanically lysed by three passes at 18,000 psi through a French Pressure Cell Press (SLM-Aminco; Pittsford, NY, USA) and cell debris was removed by centrifugation at 17,000× g for 10 min at 4 °C. Supernatants were collected, filtered through a 0.2 micron syringe filter, then loaded onto a 5 mL HisPur cobalt column (ThermoFisher Scientific, Waltham, MA, U.S.A.) using the BioRad Maximizer Duo-Flow Medium Pressure Chromatography System. Protein was eluted using an imidazole gradient (80 mM to 500 mM). Fractions were assessed for RnpA presence and purity via SDS-PAGE analysis, Coomassie staining and Western blotting using an anti-His antibody (Invitrogen; Grand Island, NY, USA).
rnpB and RNA substrates (spa, ptRNA^Tyr) for RnpA functional assays, as well as mature tRNA were synthesized in vitro, as previously described. Each gene was PCR amplified using S. aureus UAMS-1 chromosomal DNA as a template and the corresponding oligonucleotide primer pairs, in which the forward primers contained an RNA polymerase T7 promoter sequence. The following primer pairs were used in this study (T7 promoter underlined): T7-rnpB forward—[…] and rnpB reverse—[…]; T7-ptRNA^Tyr forward—[…] and ptRNA^Tyr reverse—TGGTGGAG GGGGGCAGATTC; T7-spa forward—[…] CGACGTCCAG and spa reverse—[…]. Resulting PCR products were analyzed on a 0.8% agarose gel and purified using the Qiagen QIAquick Gel Extraction kit, according to the manufacturer’s instructions. In vitro transcription was performed using the TranscriptAid T7 High Yield Transcription kit (Fermentas; Burlington, ON, Canada) following manufacturer’s instructions. Following in vitro transcription, the RNA was treated with DNase I for 90 min and re-purified using the Qiagen RNeasy Mini kit. RNA was quantified using a NanoDrop2000 spectrophotometer.
S.aureus Rnase P activity assays were performed as previously described. Briefly, ptRNA^Tyr and rnpB RNA was denatured by heating to 95 °C for 5 min then slow cooled to room temperature. RNA species were then combined with 2× low salt buffer (50 mM Tris-HCl pH 8.0, 5 mM MgCl2) and incubated for 5 min at 37 °C. Rnase P was reconstituted by mixing an equal molar ratio of His-RnpA and rnpB for 15 min at 37 °C. […] Then, 5 pmol ptRNA^Tyr was added to each reaction and incubated for an additional 30 min at 37 °C. Reactions were stopped with 2× RNA loading dye (Thermo Scientific) and heating to 65 °C for 10 min. Samples were electrophoresed on a 7M urea/8% polyacrylamide gel then stained with 0.5 µg mL^−1 ethidium bromide. The BioRad EZ Gel Doc imaging system was used to visualize the RNA and relative abundance of mature tRNA^Tyr in the DMSO control or in the samples containing compound and analyzed using BioRad Image Lab densitometry software. The percent inhibitory activity of each compound was calculated using the following equation: (% experimental processing/% processing negative control) × 100.

For `O=C(Nc1ccc(C(F)(F)F)cc1)c1c(NC(=O)C(F)(F)F)sc2c1CCCC2` [RNP0015], the MIC (S. aureus UAMS-1) was 0.78 µM, the “FIC Index” value (S. aureus UAMS-1) was 1.5 and the “Cpd MIC, Dosed-Combination” value (S. aureus UAMS-1) was 0.78 µM. The MIC (S. aureus strain UAMS-1; UAMS1) was 0.78 µM and 0.34 µg/mL, the “Fold reduction of antimicrobial activity, six-membered vs seven-membered ring matched pair” value (S. aureus strain UAMS-1; matched molecular pairs) was “fourfold less potent” and the “Inhibition of in vitro RnpA ptRNA processing (in words)” value (from here on “Inhibition”) (RNase P (RnpA + rnpB)) was “greatest inhibitory activity; also recorded: good inhibitory properties”. The IC50 (RNase P (RnpA + rnpB)) was 46 µM.
For `Cc1cccc(NC(=O)c2c(NC(=O)C(F)(F)F)sc3c2CCCCC3)c1` [RNP0010], the MIC (S. aureus UAMS-1) was 3.12 µM, the “FIC Index” value (S. aureus UAMS-1) was 0.75 and the “Cpd MIC, Dosed-Combination” value (S. aureus UAMS-1) was 0.78 µM. For the same molecule, the MIC (S. aureus strain UAMS-1; UAMS1, 16 h) was 3.21 µM (≈ 1.27 µg/mL), the MIC (S. aureus strain UAMS-1; UAMS1) was 3.12 µM and 1.24 µg/mL and the “Inhibition” value (RNase P (RnpA + rnpB)) was “only inhibited the ptRNA processing function”. For the same molecule, the IC50 (RNase P (RnpA + rnpB)) was 70 µM.
For `O=C(Nc1cccc(Cl)c1)c1c(NC(=O)C(F)(F)F)sc2c1CCCCC2` [RNP0007], the MIC (S. aureus UAMS-1) was 0.391 µM, the “FIC Index” value (S. aureus UAMS-1) was 0.75 and the “Cpd MIC, Dosed-Combination” value (S. aureus UAMS-1) was 0.098 µM. For the same molecule, the MIC (S. aureus strain UAMS-1; UAMS1) was 0.391 µM and 0.16 µg/mL, the “Inhibition” value (RNase P (RnpA + rnpB)) was “weakly inhibited” and the IC50 (RNase P (RnpA + rnpB)) was 98 µM.
`O=C(Nc1ccc(F)cc1)c1c(NC(=O)C(F)(F)F)sc2c1CCCC2` [RNP0014] was tested, and the MIC (S. aureus UAMS-1) was 6.25 µM, the “Antimicrobial interaction with mupirocin (class by FIC index)” value (S. aureus UAMS-1) was “synergistic (FIC ≤ 0.5 indicates synergistic activity)” and the “FIC Index” value (S. aureus UAMS-1) was 0.5. The “Cpd MIC, Dosed-Combination” value (S. aureus UAMS-1) was 1.56 µM, the MIC (S. aureus strain UAMS-1; UAMS1) was 6.25 µM and 2.4 µg/mL and the “Inhibition” value (RNase P (RnpA + rnpB)) was “weak effects; also recorded: weak or no inhibitory activity”. It also gave an IC50 (RNase P (RnpA + rnpB)) of 138 µM.
With `O=C(Nc1ccc(C(F)(F)F)cc1)c1c(NC(=O)C(F)(F)F)sc2c1CCCCC2` [RNP0012] the MIC (S. aureus UAMS-1) was 0.19 µM, the “Antimicrobial interaction with mupirocin (class by FIC index)” value (S. aureus UAMS-1) was “additive (a value of 0.5 < FIC ≤ 1 indicates additive effect)” and the “FIC Index” value (S. aureus UAMS-1) was 0.75. For the same molecule, the “Cpd MIC, Dosed-Combination” value (S. aureus UAMS-1) was 0.048 µM, the MIC (S. aureus strain UAMS-1; UAMS1) was 0.19 µM and 0.086 µg/mL and the “Fold improvement in anti-staphylococcal activity (MIC) over JR1” value (S. aureus strain UAMS-1; compared with JR1) was 6.6 fold. The “Inhibition” value (RNase P (RnpA + rnpB)) was “good inhibitory properties”, the “Conversion of precursor tRNA to mature tRNA” value (RNase P (RnpA + rnpB); 0, 50, 250 or 500 µM, urea-PAGE, Figure 2B) was “reduced conversion of precursor tRNA to mature tRNA in a dose dependent manner” and the IC50 (RNase P (RnpA + rnpB)) was 66 µM.
For `O=C(Nc1cccc(F)c1)c1c(NC(=O)C(F)(F)F)sc2c1CCCC2` [RNP0013], the MIC (S. aureus UAMS-1) was 6.25 µM, the “FIC Index” value (S. aureus UAMS-1) was 0.75 and the “Cpd MIC, Dosed-Combination” value (S. aureus UAMS-1) was 1.56 µM. For the same molecule, the MIC (S. aureus strain UAMS-1; UAMS1) was 6.25 µM and 2.4 µg/mL and the IC50 (RNase P (RnpA + rnpB)) was 95 µM.
With `O=C(Nc1cccc(C(F)(F)F)c1)c1c(NC(=O)C(F)(F)F)sc2c1CCCCC2` [RNP0011] the MIC (S. aureus UAMS-1) was 0.391 µM, the “FIC Index” value (S. aureus UAMS-1) was 0.75 and the “Cpd MIC, Dosed-Combination” value (S. aureus UAMS-1) was 0.098 µM. For the same molecule, the MIC (S. aureus strain UAMS-1; UAMS1) was 0.391 µM and 0.18 µg/mL, the “Inhibition” value (RNase P (RnpA + rnpB)) was “good inhibitory properties” and the IC50 (RNase P (RnpA + rnpB)) was 57 µM.
In the case of `O=C(Nc1cccc(C(F)(F)F)c1)c1c(NC(=O)C(F)(F)F)sc2c1CCCC2` [RNP0016], the MIC (S. aureus UAMS-1) is reported as 3.12 µM, the “Antimicrobial interaction with mupirocin (class by FIC index)” value (S. aureus UAMS-1) is reported as “additive (a value of 0.5 < FIC ≤ 1 indicates additive effect)” and the “FIC Index” value (S. aureus UAMS-1) is reported as 1. For the same molecule, the “Cpd MIC, Dosed-Combination” value (S. aureus UAMS-1) was 1.56 µM, the MIC (S. aureus strain UAMS-1; UAMS1) was 3.12 µM and 1.36 µg/mL and the “Inhibition” value (RNase P (RnpA + rnpB)) was “good inhibitory properties”. The IC50 (RNase P (RnpA + rnpB)) was 52 µM.
With `O=C(Nc1ccc(F)cc1)c1c(NC(=O)C(F)(F)F)sc2c1CCCCC2` [RNP0009] the MIC (S. aureus UAMS-1) was 0.78 µM, the “FIC Index” value (S. aureus UAMS-1) was 0.75 and the “Cpd MIC, Dosed-Combination” value (S. aureus UAMS-1) was 0.196 µM. The MIC (S. aureus strain UAMS-1; UAMS1) was 0.78 µM and 0.32 µg/mL, the “Inhibition” value (RNase P (RnpA + rnpB)) was “only inhibited the ptRNA processing function” and the IC50 (RNase P (RnpA + rnpB)) was 79 µM.
With `O=C(Nc1cccc(F)c1)c1c(NC(=O)C(F)(F)F)sc2c1CCCCC2` [RNP0008] the MIC (S. aureus UAMS-1) was 0.391 µM, the “FIC Index” value (S. aureus UAMS-1) was 1 and the “Cpd MIC, Dosed-Combination” value (S. aureus UAMS-1) was 0.196 µM. For the same molecule, the MIC (S. aureus strain UAMS-1; UAMS1) was 0.391 µM and 0.16 µg/mL, the “Inhibition” value (RNase P (RnpA + rnpB)) was “only inhibited the ptRNA processing function” and the IC50 (RNase P (RnpA + rnpB)) was 78 µM.
